Reference: patent publication US20070128217A1 (priority 2003, published 2007)

Assays:
[1] = system: antibodies in sera from SARS patients (sera 1a, 1b, 2, 6, 37, 62, London, SARS-yellow, SARS-green); type: binding, human; parameters: Binding of serum 6 to linear peptides of protein X1 of SARS-CoV Urbani / Binding of serum 37 to linear peptides of protein X1 of SARS-CoV Urbani / Binding of serum 6 to looped/cyclic peptide (PEPSCAN-ELISA) / Binding of serum 37 to looped/cyclic peptide (PEPSCAN-ELISA) / Binding of serum 37 to looped/cyclic peptides of protein X1 of SARS-CoV Urbani / Binding of serum 6 to linear peptides of protein X2 / Binding of serum 37 to linear peptides of protein X2 / Binding of serum 37 to looped/cyclic peptides of protein X2 of SARS-CoV Urbani / Binding of serum 6 to linear peptides of protein M of SARS-CoV Urbani / Binding of serum 37 to linear peptides of protein M of SARS-CoV Urbani / Binding of serum 6 to looped/cyclic peptides of protein M of SARS-CoV Urbani / Binding of serum 37 to looped/cyclic peptides of protein M of SARS-CoV Urbani / Binding of serum 6 to linear peptides of protein X3 of SARS-CoV Urbani / Binding of serum 37 to linear peptides of protein X3 of SARS-CoV Urbani / Binding of serum 37 to looped/cyclic peptides of protein X3 of SARS-CoV Urbani / Binding of serum 6 to linear peptides of protein X4 of SARS-CoV Urbani / Binding of serum 37 to linear peptides of protein X4 of SARS-CoV Urbani / Binding of serum 37 to looped/cyclic peptides of protein X4 of SARS-CoV Urbani / Binding of serum 6 to linear peptides of protein X5 of SARS-CoV Urbani / Binding of serum 37 to linear peptides of protein X5 of SARS-CoV Urbani / Binding of serum 37 to looped/cyclic peptides of protein X5 of SARS-CoV Urbani / Binding of serum 6 to linear peptides of protein N of SARS-CoV Urbani / Binding of serum 37 to linear peptides of protein N of SARS-CoV Urbani / Binding of serum 6 to linear peptide (PEPSCAN-ELISA) / Binding of serum 1a to looped/cyclic peptides of protein N of SARS-CoV Urbani / Binding of serum 1b to looped/cyclic peptides of protein N of SARS-CoV Urbani / Binding of serum 2 to looped/cyclic peptides of protein N of SARS-CoV Urbani / Binding of serum 6 to looped/cyclic peptides of protein N of SARS-CoV Urbani / Binding of serum 37 to looped/cyclic peptides of protein N of SARS-CoV Urbani / Binding of serum 62 to looped/cyclic peptides of protein N of SARS-CoV Urbani / Binding of serum London to looped/cyclic peptides of protein N of SARS-CoV Urbani / Binding of serum SARS-green to looped/cyclic peptides of protein N of SARS-CoV Urbani: unit not given here
[2] = system: control sera (pooled serum of ten healthy LUMC hospital workers; commercial negative donor pooled serum from the Dutch bloodbank); type: binding, human; parameters: Binding of Control serum LUMC to linear peptides / Binding of Control serum Blood-bank to linear peptides / Binding of Control serum LUMC to looped peptides / Binding of Control Serum Blood-Bank to Looped peptides / Binding of Control serum LUMC to linear peptides of the protein M of SARS-CoV Urbani / Binding of Control serum Blood-bank to linear peptides of the protein M of SARS-CoV Urbani / Binding of Control serum LUMC to looped peptides of the protein M of SARS-CoV Urbani / Binding of Control Serum Blood-Bank to Looped peptides of the protein M of SARS-CoV Urbani: unit not given here
[3] = system: rabbit serum obtained by immunizing a rabbit with the SARS-CoV strain Frankfurt 1; type: binding; parameters: Binding of a rabbit serum to linear peptides / Binding of a rabbit serum to looped peptides / Rabbit serum linear peptides / Rabbit serum looped peptides / Binding of a rabbit serum to linear peptides of protein N of SARS-CoV Urbani (Rabbit serum linear peptides) / Binding of a rabbit serum to looped/cyclic peptides of protein N of SARS-CoV Urbani (Rabbit serum looped peptides): unit not given here

NVQIHTIDGSSGVAN was tested, and the “Binding of serum 1a to linear peptides of protein X1 of SARS-CoV Urbani” value [1] was 0.7, the “Binding of serum 1a to looped/cyclic peptides of protein X1 of SARS-CoV Urbani” value [1] was 0.2 and the “Binding of serum 1b to linear peptides of protein X1 of SARS-CoV Urbani” value [1] was 0.5. For the same sequence, the “Binding of serum 1b to looped/cyclic peptides of protein X1 of SARS-CoV Urbani” value [1] was 0.2, the “Binding of serum 2 to linear peptides of protein X1 of SARS-CoV Urbani” value [1] was 0.5 and the “Binding of serum 2 to looped/cyclic peptides of protein X1 of SARS-CoV Urbani” value [1] was 0.1. The “Binding of serum 6 to linear peptides of protein X1 of SARS-CoV Urbani” value [1] was 0.4, the “Binding of serum 6 to looped/cyclic peptides of protein X1 of SARS-CoV Urbani” value [1] was 0.1 and the “Binding of serum 37 to linear peptides of protein X1 of SARS-CoV Urbani” value [1] was 0.7. The “Binding of serum 37 to looped/cyclic peptides of protein X1 of SARS-CoV Urbani” value [1] was 0.3, the “Binding of serum 62 to linear peptides of protein X1 of SARS-CoV Urbani” value [1] was 0.6 and the “Binding of serum 62 to looped/cyclic peptides of protein X1 of SARS-CoV Urbani” value [1] was 0.3. The “Binding of serum London to linear peptides of protein X1 of SARS-CoV Urbani” value [1] was 0.3, the “Binding of serum London to looped/cyclic peptides of protein X1 of SARS-CoV Urbani” value [1] was 0.2 and the “Binding of serum SARS-green to linear peptides of protein X1 of SARS-CoV Urbani” value [1] was 0.3. The “Binding of serum SARS-green to looped/cyclic peptides of protein X1 of SARS-CoV Urbani” value [1] was 0.2, the “Binding of serum SARS-yellow to linear peptides of protein X1 of SARS-CoV Urbani” value [1] was 0.4 and the “Binding of serum SARS-yellow to looped/cyclic peptides of protein X1 of SARS-CoV Urbani” value [1] was 0.1. The “Binding of Control Serum Blood-Bank to Looped peptides” value [2] was 0.4, the “Binding of Control serum Blood-bank to linear peptides” value [2] was 0.5 and the “Binding of Control serum LUMC to linear peptides” value [2] was 0.5. The “Binding of Control serum LUMC to looped peptides” value [2] was 0.4, the “Binding of a rabbit serum to linear peptides” value [3] was 0.1 and the “Binding of a rabbit serum to looped peptides” value [3] was 0.3.
With PFHRWHTMVQTCTPN the “Binding of serum 1a to linear peptides of protein X5 of SARS-CoV Urbani” value [1] was 0.7, the “Binding of serum 1a to looped/cyclic peptides of protein X5 of SARS-CoV Urbani” value [1] was 0.6 and the “Binding of serum 1b to linear peptides of protein X5 of SARS-CoV Urbani” value [1] was 0.7. For the same sequence, the “Binding of serum 1b to looped/cyclic peptides of protein X5 of SARS-CoV Urbani” value [1] was 0.5, the “Binding of serum 2 to linear peptides of protein X5 of SARS-CoV Urbani” value [1] was 0.7 and the “Binding of serum 2 to looped/cyclic peptides of protein X5 of SARS-CoV Urbani” value [1] was 0.6. For the same sequence, the “Binding of serum 6 to linear peptides of protein X5 of SARS-CoV Urbani” value [1] was 0.7, the “Binding of serum 6 to looped/cyclic peptides of protein X5 of SARS-CoV Urbani” value [1] was 0.3 and the “Binding of serum 37 to linear peptides of protein X5 of SARS-CoV Urbani” value [1] was 0.7. For the same sequence, the “Binding of serum 37 to looped/cyclic peptides of protein X5 of SARS-CoV Urbani” value [1] was 0.5, the “Binding of serum 62 to linear peptides of protein X5 of SARS-CoV Urbani” value [1] was 0.7 and the “Binding of serum 62 to looped/cyclic peptides of protein X5 of SARS-CoV Urbani” value [1] was 0.3. For the same sequence, the “Binding of serum London to linear peptides of protein X5 of SARS-CoV Urbani” value [1] was 0.7, the “Binding of serum London to looped/cyclic peptides of protein X5 of SARS-CoV Urbani” value [1] was 0.2 and the “Binding of serum SARS-green to linear peptides of protein X5 of SARS-CoV Urbani” value [1] was 0.5. For the same sequence, the “Binding of serum SARS-green to looped/cyclic peptides of protein X5 of SARS-CoV Urbani” value [1] was 0.3, the “Binding of serum SARS-yellow to linear peptides of protein X5 of SARS-CoV Urbani” value [1] was 0.4 and the “Binding of serum SARS-yellow to looped/cyclic peptides of protein X5 of SARS-CoV Urbani” value [1] was 0.3. For the same sequence, the “Binding of Control Serum Blood-Bank to Looped peptides” value [2] was 0.5, the “Binding of Control serum Blood-bank to linear peptides” value [2] was 0.7 and the “Binding of Control serum LUMC to linear peptides” value [2] was 0.5. For the same sequence, the “Binding of Control serum LUMC to looped peptides” value [2] was 0.4, the “Rabbit serum linear peptides” value [3] was 0.5 and the “Rabbit serum looped peptides” value [3] was 0.4.
PKLFIRQEEVQQELY was tested, and the “Binding of serum 1a to linear peptides of protein X4 of SARS-CoV Urbani” value [1] was 0.7, the “Binding of serum 1a to looped/cyclic peptides of protein X4 of SARS-CoV Urbani” value [1] was 0.8 and the “Binding of serum 1b to linear peptides of protein X4 of SARS-CoV Urbani” value [1] was 0.6. For the same sequence, the “Binding of serum 1b to looped/cyclic peptides of protein X4 of SARS-CoV Urbani” value [1] was 0.6, the “Binding of serum 2 to linear peptides of protein X4 of SARS-CoV Urbani” value [1] was 0.4 and the “Binding of serum 2 to looped/cyclic peptides of protein X4 of SARS-CoV Urbani” value [1] was 0.5. The “Binding of serum 6 to linear peptides of protein X4 of SARS-CoV Urbani” value [1] was 0.5, the “Binding of serum 6 to looped/cyclic peptides of protein X4 of SARS-CoV Urbani” value [1] was 0.5 and the “Binding of serum 37 to linear peptides of protein X4 of SARS-CoV Urbani” value [1] was 0.8. For the same sequence, the “Binding of serum 37 to looped/cyclic peptides of protein X4 of SARS-CoV Urbani” value [1] was 0.7, the “Binding of serum 62 to linear peptides of protein X4 of SARS-CoV Urbani” value [1] was 0.8 and the “Binding of serum 62 to looped/cyclic peptides of protein X4 of SARS-CoV Urbani” value [1] was 0.6. For the same sequence, the “Binding of serum London to linear peptides of protein X4 of SARS-CoV Urbani” value [1] was 0.8, the “Binding of serum London to looped/cyclic peptides of protein X4 of SARS-CoV Urbani” value [1] was 0.4 and the “Binding of serum SARS-green to linear peptides of protein X4 of SARS-CoV Urbani” value [1] was 0.7. For the same sequence, the “Binding of serum SARS-green to looped/cyclic peptides of protein X4 of SARS-CoV Urbani” value [1] was 0.5, the “Binding of serum SARS-yellow to linear peptides of protein X4 of SARS-CoV Urbani” value [1] was 0.8 and the “Binding of serum SARS-yellow to looped/cyclic peptides of protein X4 of SARS-CoV Urbani” value [1] was 0.4. For the same sequence, the “Binding of Control Serum Blood-Bank to Looped peptides” value [2] was 0.6, the “Binding of Control serum Blood-bank to linear peptides” value [2] was 0.7 and the “Binding of Control serum LUMC to linear peptides” value [2] was 0.5. The “Binding of Control serum LUMC to looped peptides” value [2] was 0.7, the “Rabbit serum linear peptides” value [3] was 0.4 and the “Rabbit serum looped peptides” value [3] was 0.4.
In the case of PLLYDANYFVCWHTH, the “Binding of serum 1a to linear peptides of protein X1 of SARS-CoV Urbani” value [1] is reported as 0.9, the “Binding of serum 1a to looped/cyclic peptide (PEPSCAN-ELISA)” value [1] is reported as 0.6 and the “Binding of serum 1b to linear peptides of protein X1 of SARS-CoV Urbani” value [1] is reported as 0.8. The “Binding of serum 1b to looped/cyclic peptide (PEPSCAN-ELISA)” value [1] was 0.6, the “Binding of serum 2 to linear peptides of protein X1 of SARS-CoV Urbani” value [1] was 0.6 and the “Binding of serum 2 to looped/cyclic peptide (PEPSCAN-ELISA)” value [1] was 0.4. For the same sequence, the “Binding of serum 6 to linear peptides of protein X1 of SARS-CoV Urbani” value [1] was 0.6, the “Binding of serum 6 to looped/cyclic peptide (PEPSCAN-ELISA)” value [1] was 0.4 and the “Binding of serum 37 to linear peptides of protein X1 of SARS-CoV Urbani” value [1] was 0.8. The “Binding of serum 37 to looped/cyclic peptide (PEPSCAN-ELISA)” value [1] was 0.7, the “Binding of serum 62 to linear peptides of protein X1 of SARS-CoV Urbani” value [1] was 0.8 and the “Binding of serum 62 to looped/cyclic peptide (PEPSCAN-ELISA)” value [1] was 0.7. The “Binding of serum London to linear peptides of protein X1 of SARS-CoV Urbani” value [1] was 0.4, the “Binding of serum London to looped/cyclic peptide (PEPSCAN-ELISA)” value [1] was 0.2 and the “Binding of serum SARS-green to linear peptides of protein X1 of SARS-CoV Urbani” value [1] was 0.4. For the same sequence, the “Binding of serum SARS-green to looped/cyclic peptide (PEPSCAN-ELISA)” value [1] was 0.3, the “Binding of serum SARS-yellow to linear peptides of protein X1 of SARS-CoV Urbani” value [1] was 0.5 and the “Binding of serum SARS-yellow to looped/cyclic peptide (PEPSCAN-ELISA)” value [1] was 0.4. The “Binding of Control Serum Blood-Bank to Looped peptides” value [2] was 0.6, the “Binding of Control serum Blood-bank to linear peptides” value [2] was 0.7 and the “Binding of Control serum LUMC to linear peptides” value [2] was 0.6. The “Binding of Control serum LUMC to looped peptides” value [2] was 0.6, the “Binding of a rabbit serum to linear peptides” value [3] was 0.1 and the “Binding of a rabbit serum to looped peptides” value [3] was 0.5.
